Results published in patent US20230227508A1, “SPLIT INTEIN-BASED SELECTION FOR PEPTIDE BINDERS” (priority 2020, published 2023).
Entries after “also recorded” stand apart in the source; their conditions may differ. No end group written: not given here.

Assays:
their target = conditions: read-out: binding to their target; cited from earlier work
[1] = test system: indicator strains from niches of the human microbiome (Table 11); experiment: 96-well antimicrobial profiling, residual growth (OD600); format: cell-based; conditions: for antimicrobial activity (fingerprint, residual growth): set amount of SPE purified RiPP, large panel of indicator strains; for activity against strains of the alimentary tract: Bifidobacterium adolescenits, Bifidobacterium longum, Sellimonas intestinalis, Streptococcus dysgalactiae
[2] = test system: methicillin-resistant Staphylococcus aureus (MRSA), vancomycin-resistant Enterococcus faecium (VRE), Streptococcus pneumoniae; experiment: Dilution series, dose-dependent killing of MDR clinical isolates; format: cell-based; conditions: for dose-dependent antimicrobial activity against at least one strain: 2-fold serial dilution of SPE-purified peptide from liter scale fermentation
[3] = test system: human microbiome-associated strains (Staphylococcus aureus, Streptococcus infantarius, Streptococcus dysgalactiae, Pediococcus acidilactici …); format: cell-based; conditions: microtiter-purified RiPPs; initial test set of indicator strains
Lactobacillus crispatus = experiment: Antimicrobial activity against Lactobacillus crispatus; format: cell-based; conditions: FIG. 57D
Streptococcus pneumoniae = experiment: Dilution series against Streptococcus pneumoniae; format: cell-based; conditions: serial dilution of SPE-purified peptide
[4] = biological target: SARS-CoV-2 Spike RBD (residues 328-533) as bait (Severe acute respiratory syndrome coronavirus 2, UniProt P0DTC2)

CN[C@H](CC(C)C)C(=O)N[C@H]1C(=O)N[C@@H](CC(N)=O)C(=O)N[C@H]2C(=O)N[C@H]3C(=O)N[C@H](C(=O)N[C@H](C(=O)O)c4cc(O)cc(O)c4-c4cc3ccc4O)[C@H](O)c3ccc(c(Cl)c3)Oc3cc2cc(c3O[C@@H]2O[C@H](CO)[C@@H](O)[C@H](O)[C@H]2O[C@H]2C[C@](C)(N)[C@H](O)[C@H](C)O2)Oc2ccc(cc2Cl)[C@H]1O [vancomycin]
Kd (their target): ~1000 nM

GGDGVMHTLTHECHMNTWQFLLTCC [AMK-417]
antimicrobial activity (fingerprint, residual growth) [1]: active
dose-dependent antimicrobial activity against at least one strain [2]: Dose-dependent antimicrobial activity

GGGWYTAFKLTLAGRCGLCFTCSYECTSNNVHC [AMK-286]
activity against strains of the alimentary tract [1]: pronounced activity
antimicrobial activity (fingerprint, residual growth) [1]: active

GGKNGVFKTISHECHLNTWAFLATCCS [AMK-691]
zones of inhibition [3]: varying zones of inhibition
antimicrobial activity (fingerprint, residual growth) [1]: active
activity against Lactobacillus crispatus (Lactobacillus crispatus): demonstrated activity
dose-dependent antimicrobial activity against at least one strain [2]: Dose-dependent antimicrobial activity

GGWFTAIQLTLAGRCGNWFTGSFECTSNNVKCG [AMK-287]
zones of inhibition [3]: varying zones of inhibition
activity against other Streptococci (strains with significant activity, spectrum) ([1]; 5 Streptococcal strains of the panel): narrow spectrum of activity
activity against strains of the alimentary tract [1]: pronounced activity
antimicrobial activity (fingerprint, residual growth) [1]: active
dose-dependent antimicrobial activity against at least one strain [2]: Dose-dependent antimicrobial activity
activity against Streptococcus pneumoniae (Streptococcus pneumoniae): pronounced activity

GHVELMNADKVKCKSTSTTKSCSSTSTTSVD [AMK-720]
antimicrobial activity (fingerprint, residual growth) [1]: exceptionally broad antimicrobial activity

GLIYGKYRDVLSGARLVTPPEVALRLVPR [AMK-917]
antimicrobial activity (fingerprint, residual growth) [1]: active

GSRWWQGVLPTVSHECRMNSFQHIFTCC [AMK-687]
zones of inhibition [3]: varying zones of inhibition
antimicrobial activity (fingerprint, residual growth) [1]: active; also recorded: remarkable antimicrobial activity
activity against Lactobacillus crispatus (Lactobacillus crispatus): even more pronounced activity
antimicrobial activity against MDR clinical isolates (potency, spectrum, in words) [2]: particularly potent and broad-spectrum antimicrobial activity against all four isolates
dose-dependent antimicrobial activity against at least one strain [2]: Dose-dependent antimicrobial activity

GWLWGSYRDVYGVWHGPRTNFNGAGGSSEWRLVPR [AMK-1009]
antimicrobial activity (fingerprint, residual growth) [1]: active

GWQTAFRLTMQGRCGGVFTLSYECATPHVSCG [AMK-916]
activity against strains of the alimentary tract [1]: pronounced activity
antimicrobial activity (fingerprint, residual growth) [1]: active

GWYWGNRRDIYGALRYANKRLVPR [AMK-1010]
antimicrobial activity (fingerprint, residual growth) [1]: active

VCKYGEWCEIVEI [VCKYGEWCEIVEI (SEQ ID NO: 24)]
specificity for the Spike RBD as bait over Mdm2* [4]: 14 fold
transcriptional output of circuit [4]: strong transcriptional output

microcin J25 (GGAGHVPEYFVGIGTPISFYG; ends and bridges not checked; UniProt Q9X2V7 38-58, looked up)
Kd (their target): 2000 nM
